Legend:
[1] = molecular target: T1, survivin (Homo sapiens, UniProt O15392); experiment: PEPperCHIP peptide microarray, survivin interaction; type: binding; settings: 1 μg/mL survivin; for Average FI (%): anti-His tag DyLight680 read-out, percentage of maximum fluorescence intensity units (64193) per peptide; for Average FI (%) / Integrated FI: 15-mer microarray peptides covering the residues; for Integrated FI: in units of the maximum FI per peptide; for survivin interaction / fluorescence on microarray (in words): peptide microarray
T1 construct: transferred to the survivin1-142 construct used in the present study; His8 tag (pHIS8 vector, thrombin-cleavable); made in house; host or cells: E. coli BL21(DE3) star
Description: We were looking for potential direct interactions between survivin and short peptide sequences originating from PRC2 subunits and other proteins involved in histone modifications based on the in vivo results. Therefore, we created a peptide microarray of overlapping peptides obtained from EZH2, EED, SUZ12, and JARID2 to investigate how survivin interacts with the activity of the PRC2 complex. These subunits form the core of PRC2, and the interaction of survivin with the PRC2 molecular scaffold indicates a potentially disruptive role for survivin in PRC2 function. The fluorescence signal generated by labeled survivin is compared in Figure 2 as a function of position along the polypeptide chain of PRC2 subunits. Figure S1 depicts the raw fluorescence images. Moreover, the microarray fluorescence intensities projected on the three-dimensional structure of the PRC2 core complex are shown in Figure 3. The whole dataset is deposited at the Zenodo data base.
The location of survivin on the peptide microarray was clearly correlated with the amino acid content of the peptide at 1 μg/mL survivin concentration. When evaluating how accurate the predictions were, one should keep in mind that the primary and higher-order structures of the peptide were not at all considered in this analysis. Mislabeling peptides is possible for multiple reasons. The smallest fluorescence signal was chosen as the limit of detection and photon-counting errors may cause weak interactions to be undetected at low fluorescence intensities. Moreover, if the fluorescence intensity of experimental duplicates varied by more than 40%, a peptide was classified as non-interacting even if the lack of reproducibility is ambiguous evidence for the lack of interaction. […] Reducing the number of hidden layer perceptrons from 100 (the default value) to 9 had no effect on the classifier’s performance. Even a 15 amino acid peptide segment composition gives a high degree of uniqueness and highly scalable intensity for survivin-peptide interaction. Survivin has a non-globular structure with no deep binding pockets.
A peptide microarray was designed using the protein sequences from: Cdk1 (P06493), KAT2A/GCN5 (Q92830), SPI1/PU1 (P17947), SUZ12 (Q15022), EED (O75530), JADE3 (Q92613), DIABLO/SMAC (Q9NR28), BOREALIN (Q53HL2), INCENP (Q9NQS7), SGOL1 (Q5FBB7), SGOL2 (Q562F6), EZH2 (Q15910), JARID2 (Q92833), Histone H3 (P68431), AURORAKB (Q96GD4), JADE1 (Q6IE81), JTB (O76095), EVI5 (O60447), RAN (P62826), USP9X (Q93008), C-IAP1 (Q13490), STAT3 (P40763), BRUCE/APOLLON (Q9NR09), XPO1 (O14980), CDX2 (Q99626), Msx2 (P35548), RBM15 (Q96T37), PHF21A (Q96BD5), PHF8 (Q9UPP1), DIDO (Q9BTC0), JADE2 (Q9NQC1) and HASPIN (Q8TF76). The Uniprot ID is shown in parenthesis. The protein sequences were divided into 15 amino acid long peptides with a 10 amino acid overlap. To investigate background interactions with the protein-derived peptides that could interfere with the main assays, one of the PEPperCHIP Peptide Microarrays (PEPperPRINT Gmbh) was pre-staining with the secondary 6x His Tag Antibody DyLight680 antibody at a dilution of 1:1000 and with the monoclonal anti-HA (12CA5)-DyLight800 control antibody at a dilution of 1:1000. Subsequent incubation of other peptide microarray copies with survivin at a concentration of 1 μg/ml in incubation buffer was followed by staining with the secondary 6x His Tag Antibody DyLight680 antibody (Rockland Immunochemicals, Pottstown, PA, USA) and the monoclonal anti-HA (12CA5)-DyLight800 control antibody (Rockland Immunochemicals, Pottstown, PA, USA). The read-out was performed by scanning intensities of 7/7 (red/green). As an internal quality control, HA and His tag control peptides were stained simultaneously to confirm assay quality and to facilitate grid alignment for data quantification. The LI-COR Odyssey Imaging System was used for read-out, and the PepSlide Analyzer was used for quantification of spot intensities and peptide annotation. […]

[2] = molecular target: T2, [U-15N]-survivin (Homo sapiens, UniProt O15392); experiment: NMR titration of [U-15N]-survivin with PRC2-derived peptides; type: binding; settings: for NMR cpc (critical peptide concentration): 300 μM [U-15N]-survivin, 50 mM Tris, 150 mM NaCl, 1 mM DTT, pH 7.5, 298 K, Bayesian logistic fit (Table 3); for <L>: logistic function parameter L; for <L> / <b> / <k>: posterior mean (Table S10); for <b>: logistic function parameter b; for <k>: logistic function parameter k
T2 construct: transferred to the survivin1-142 construct used in the present study; His8 tag (pHIS8 vector, thrombin-cleavable); made in house; host or cells: E. coli BL21(DE3) star, M9 medium with 15NH4Cl
Procedure: Uniformly [U] labeled [U-^15N] survivin was produced in H2O-based M9 medium[69] containing ^15NH4Cl as the sole nitrogen and in case of or [U-^15N,^13C] survivin D-(^13C)-glucose was additionally added as the sole carbon source, respectively (Sigma-Aldrich). Expression was induced with 0.5 mM IPTG and continued for 20–22 h at 15°C. Cell harvesting and subsequent purification followed the same protocol as for unlabeled survivin.
NMR measurements were performed on Bruker (Fällanden, Switzerland) AvanceIII 800 MHz spectrometers running Topspin 3.5 or 3.6, respectively, equipped with cryogenically cooled triple resonance probes. All NMR experiments were performed in NMR buffer (50 mM Tris, 150 mM NaCl, 1 mM DTT, pH 7.5) and at 298 K. The sequence-specific backbone assignment of survivin1-117 was taken from previously published assignment,[50] and transferred to the survivin1-142 construct used in the present study. Existing resonance assignments were confirmed, and additional resonances were assigned in a sequence-specific manner by the following experiments: [^1H,^15N]-TROSY HSQC,[70] BEST-TROSY-type HNCA and HNCO experiments.[71]
The peptides were synthetized and purified to 95% by Biomatik. The peptides were titrated into ^15N labelled survivin (0.3 mM). Standard 2D [^15N,^1H]-SOFAST-HMQC[72] experiments were recorded with inter-scan delays of 200 ms and 1025 x 256 complex points for the ^1H and ^15N dimensions, respectively, for the titrations of the different peptides with [U-^15N] survivin.
For the global analysis, the NMR signal strength was quantified by summing the 200 highest values in each 2D NMR spectrum to ensure that all peaks corresponding to the different amino acid residues in survivin are potentially covered. The titration curve was modelled using a Bayesian machine learning approach using the python library pymc3.[66] The logistic function was chosen due to computational convenience. The most important parameter of this function was coined “critical peptide concentration (cpc)” and its logarithm was modelled using a uniform a priori distribution between −10 and 1. p(log10cpc|lower=−10,upper=1)=1/upper−lower
The modelling errors related to the choice of function affect the analysis of different peptides similarly. Therefore, the relative magnitude of cpc in comparison is more reliable than the absolute magnitude of cpc itself. The concentration values were converted to dimensionless quantities by dividing with 1 mM and the NMR signal intensity was normalized for the concentration range studied.
A deterministic sigmoid (logistic) function was used to model signal decay as a function of peptide concentration. Additional a priori assumptions of the function parameters were the following: p(k|lower=−10,upper=10)=1/upper−lower p(L|lower=−3,upper=3)=1/upper−lower p(b|lower=−10,upper=10)=1/upper−lower
1000 posterior samples were collected in four parallel chains using the No-U-Turn sampling algorithm (NUTS) after 2000 tuning steps/chain.[83] The default sampling parameters were used except for “target accept” parameter, which was increased to 0.95. For the final analysis the 1000 samples from the four chains were merged to yield 4000 samples.

T1 sequence (O15392 whole entry): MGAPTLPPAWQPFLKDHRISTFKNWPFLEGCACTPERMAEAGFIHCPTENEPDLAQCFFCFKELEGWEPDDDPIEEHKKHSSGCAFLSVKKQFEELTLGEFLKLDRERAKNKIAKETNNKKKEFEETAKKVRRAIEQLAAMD
T2 sequence (O15392 whole entry): as above

Sequence: PLRPQEMEVDSEDEKDPEWLREKTI [SUZ12_573-597, PRC2-derived peptide, SUZ12 residues 573–597, synthesized by Biomatik]
- Average FI (%) [1]: 20%
- Integrated FI [1]: 0.6
- survivin interaction / fluorescence on microarray (in words) [1]: high survivin-associated fluorescence intensity
- NMR cpc (critical peptide concentration) [2]: 0.0066 µM
- <L> [2]: -0.59
- <b> [2]: 0.87
- <k> [2]: 0.99

Sequence: PNSMVYFGSSQDEEEVEEEDDETED [JARID2_170-194, PRC2-derived peptide, JARID2 residues 170–194, synthesized by Biomatik]
- Average FI (%) [1]: 100%
- Integrated FI [1]: 3.00
- survivin interaction / fluorescence on microarray (in words) [1]: high survivin-associated fluorescence intensity
- NMR cpc (critical peptide concentration) [2]: 0.0085 µM
- <L> [2]: -0.53
- <b> [2]: 0.79
- <k> [2]: 1.25

Sequence: SQGEIRLLQSYVDADADENFYTCAW [EED128-152, PRC2-derived peptide, EED residues 128–152, synthesized by Biomatik]
- Average FI (%) [1]: 10%
- Integrated FI [1]: 0.31
- survivin interaction / fluorescence on microarray (in words) [1]: high survivin-associated fluorescence intensity
- NMR cpc (critical peptide concentration) [2]: 0.0076 µM
- <L> [2]: -0.00
- <b> [2]: 0.51
- <k> [2]: -0.01

— paper PMC10391610, “Survivin prevents the polycomb repressor complex 2 from methylating histone 3 lysine 27” (iScience, 2023)
